Data from ChEMBL document CHEMBL1129432, “Structure-activity relationships of a series of novel (piperazinylbutyl)thiazolidinone antipsychotic agents related to 3-[4-[4-(6-fluorobenzo[b]thien-3-yl)-1-piperazinyl]butyl]-2,5,5- trimethyl-4-thiazolidinone maleate” (J Med Chem, 1996).
Values belong to the compound of their own block, whether it stands above or below them.

Assays:
[1] = biological target: T1, 5-hydroxytryptamine receptor 1A (Rattus norvegicus, UniProt P19327); experiment: Binding affinity towards serotonin 5-HT1A receptor was determined in rat hippocampus using [3H]8-OH-DPAT as ligand; format: tissue-based
T1 sequence (P19327 whole entry): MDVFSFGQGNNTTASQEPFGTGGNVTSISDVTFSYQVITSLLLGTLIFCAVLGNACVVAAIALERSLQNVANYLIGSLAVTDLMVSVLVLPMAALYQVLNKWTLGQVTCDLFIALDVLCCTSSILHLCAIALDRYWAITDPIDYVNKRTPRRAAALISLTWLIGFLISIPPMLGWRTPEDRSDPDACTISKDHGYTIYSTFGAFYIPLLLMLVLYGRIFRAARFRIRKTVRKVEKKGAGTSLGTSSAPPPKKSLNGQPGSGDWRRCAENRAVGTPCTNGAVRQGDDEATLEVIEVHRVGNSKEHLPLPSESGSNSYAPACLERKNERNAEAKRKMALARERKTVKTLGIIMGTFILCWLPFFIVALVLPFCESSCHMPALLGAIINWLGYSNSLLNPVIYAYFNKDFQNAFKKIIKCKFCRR

[2] = biological target: D(2) dopamine receptor (Rattus norvegicus, UniProt P61169); experiment: Binding affinity towards Dopamine receptor D2 was determined in rat striatum using [3H]- spiperone as radioligand; format: tissue-based
[3] = Intraperitoneal effective dose required for inhibition of apomorphine-induced stereotypy in rat; format: functional; conditions: ip
[4] = biological target: Serotonin 2 (5-HT2) receptor (Rattus norvegicus, UniProt P30994+P08909+P14842); experiment: Binding affinity towards serotonin 5-HT2 receptor was determined in rat cortex using [3H]spiperone as ligand
[5] = test system: Rattus norvegicus; experiment: Compound at an intraperitoneal dose of 10 mg/Kg was tested for the inhibition of apomorphine-induced stereotypy in rat; format: functional; design: scale not given: the % may be the effect or the level left
[6] = test system: Rattus norvegicus; experiment: Compound at an intraperitoneal dose of 20 mg/Kg was tested for the inhibition of apomorphine-induced stereotypy in rat; format: functional; design: scale not given: the % may be the effect or the level left
[7] = Compound at an intraperitoneal dose of 40 mg/Kg was tested for the inhibition of apomorphine-induced stereotypy in rat; format: functional; design: scale not given: the % may be the effect or the level left
[8] = test system: Rattus norvegicus; experiment: Compound at an intraperitoneal dose of 80 mg/Kg was tested for the inhibition of apomorphine-induced stereotypy in rat; format: functional; design: scale not given: the % may be the effect or the level left
[9] = test system: Rattus norvegicus; experiment: Compound at an intraperitoneal dose of 2.5 mg/Kg was tested for the inhibition of apomorphine-induced stereotypy in rat; format: functional; design: scale not given: the % may be the effect or the level left
[10] = test system: Rattus norvegicus; experiment: Compound at an intraperitoneal dose of 5 mg/Kg was tested for the inhibition of apomorphine-induced stereotypy in rat; format: functional; design: scale not given: the % may be the effect or the level left
[11] = biological target: T2, 5-hydroxytryptamine receptor 2A (Homo sapiens, UniProt P28223); experiment: Inhibitory concentration against human 5-HT2A receptor in BEK cells; format: cell-based
[12] = biological target: T2, 5-hydroxytryptamine receptor 2A; experiment: Binding affinity towards human 5-HT2A receptor in BEK cells; format: cell-based
[13] = biological target: T3, D(4) dopamine receptor (Homo sapiens, UniProt P21917); experiment: Binding affinity against human Dopamine receptor D4.2 in CHO cells; format: cell-based
T3 sequence (P21917 whole entry): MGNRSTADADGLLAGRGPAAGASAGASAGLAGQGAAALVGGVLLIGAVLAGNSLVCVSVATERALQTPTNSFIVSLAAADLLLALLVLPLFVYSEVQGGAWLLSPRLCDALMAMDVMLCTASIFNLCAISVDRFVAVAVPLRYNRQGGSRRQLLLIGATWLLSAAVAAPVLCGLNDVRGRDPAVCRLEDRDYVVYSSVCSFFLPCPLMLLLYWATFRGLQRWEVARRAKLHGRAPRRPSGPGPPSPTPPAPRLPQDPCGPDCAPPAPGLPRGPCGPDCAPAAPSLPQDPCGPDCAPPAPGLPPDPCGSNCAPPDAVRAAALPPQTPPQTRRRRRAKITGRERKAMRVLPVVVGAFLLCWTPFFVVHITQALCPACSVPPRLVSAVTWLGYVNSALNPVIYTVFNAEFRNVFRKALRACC

[14] = test system: Rattus norvegicus; experiment: Compound at an intraperitoneal dose of 50 mg/Kg was tested for the inhibition of apomorphine-induced stereotypy in rat; format: functional; design: scale not given: the % may be the effect or the level left
[15] = test system: Rattus norvegicus; experiment: Compound at an intraperitoneal dose of 60 mg/Kg was tested for the inhibition of apomorphine-induced stereotypy in rat; format: functional; design: scale not given: the % may be the effect or the level left
[16] = test system: Rattus norvegicus; experiment: Percentage change in Social interaction when compound administered at a doe of 2.5 mg/kg ip in rats; format: functional; conditions: route intraperitoneal
[17] = test system: Rattus norvegicus; experiment: Percentage change in Social interaction when compound administered at a doe of 5 mg/kg ip in rats; format: functional; conditions: route intraperitoneal
[18] = test system: Rattus norvegicus; experiment: Percentage change in Total activity (anti psychotic) when compound administered at a doe of 1.25 mg/kg ip in rats; format: functional; conditions: route intraperitoneal
[19] = test system: Rattus norvegicus; experiment: Percentage change in Total activity (anti psychotic) when compound administered at a doe of 2.5 mg/kg ip in rats; format: functional; conditions: route intraperitoneal
[20] = test system: Rattus norvegicus; experiment: Percentage change in Social interaction when compound administered at a doe of 1.25 mg/kg ip in rats; format: functional; conditions: route intraperitoneal
[21] = test system: Rattus norvegicus; experiment: Percentage change in Total activity (anti psychotic) when compound administered at a doe of 5 mg/kg ip in rats; format: functional; conditions: route intraperitoneal
[22] = test system: Rattus norvegicus; experiment: Percentage change in chronic single unit sampling when compound given at a dose of 10 mg/kg ip (Expt-2); format: functional; conditions: route intraperitoneal
[23] = test system: Rattus norvegicus; experiment: Percentage change in chronic single unit sampling when compound given at a dose of 10 mg/kg ip in rats; format: functional; conditions: route intraperitoneal
[24] = test system: Rattus norvegicus; experiment: Percentage change in chronic single unit sampling when compound given at a dose of 20 mg/kg ip in rats; format: functional; conditions: route intraperitoneal
[25] = test system: Rattus norvegicus; experiment: Percentage change in chronic single unit sampling when compound given at a dose of 20 mg/kg ip in rats (Expt-2); format: functional; conditions: route intraperitoneal
[26] = test system: Rattus norvegicus; experiment: Anti psychotic effect Social interaction when compound administered at a doe of 1.25 mg/kg ip in rats; format: functional; conditions: route intraperitoneal
[27] = test system: Rattus norvegicus; experiment: Anti psychotic effect Social interaction when compound administered at a doe of 2.5 mg/kg ip in rats; format: functional; conditions: route intraperitoneal
[28] = test system: Rattus norvegicus; experiment: Anti psychotic effect Social interaction when compound administered at a doe of 5 mg/kg ip in rats; format: functional; conditions: route intraperitoneal
[29] = test system: Rattus norvegicus; experiment: Total activity (anti psychotic) when compound administered at a doe of 2.5 mg/kg ip in rats; format: functional; conditions: route intraperitoneal
[30] = test system: Rattus norvegicus; experiment: Total activity (anti psychotic) when compound administered at a doe of 5 mg/kg ip in rats; format: functional; conditions: route intraperitoneal
[31] = test system: Rattus norvegicus; experiment: Total activity (anti psychotic) when compound administered at a doe of 1.25 mg/kg ip in rats; format: functional; conditions: route intraperitoneal
[32] = biological target: T3, D(4) dopamine receptor
Description: Inhibitory concentration against human Dopamine receptor D4.2 in CHO cells

[33] = test system: Rattus norvegicus; experiment: Percentage change in Social interaction when compound administered at a doe of 10 mg/kg ip in rats; format: functional; conditions: route intraperitoneal
[34] = test system: Rattus norvegicus; experiment: Percentage change in Total activity (anti psychotic) when compound administered at a doe of 10 mg/kg ip in rats; format: functional; conditions: route intraperitoneal
[35] = test system: Rattus norvegicus; experiment: Anti psychotic effect Social interaction when compound administered at a doe of 10 mg/kg ip in rats; format: functional; conditions: route intraperitoneal
[36] = test system: Rattus norvegicus; experiment: Total activity (anti psychotic) when compound administered at a doe of 10 mg/kg ip in rats; format: functional; conditions: route intraperitoneal

Sequence of D(2) dopamine receptor (P61169 whole entry): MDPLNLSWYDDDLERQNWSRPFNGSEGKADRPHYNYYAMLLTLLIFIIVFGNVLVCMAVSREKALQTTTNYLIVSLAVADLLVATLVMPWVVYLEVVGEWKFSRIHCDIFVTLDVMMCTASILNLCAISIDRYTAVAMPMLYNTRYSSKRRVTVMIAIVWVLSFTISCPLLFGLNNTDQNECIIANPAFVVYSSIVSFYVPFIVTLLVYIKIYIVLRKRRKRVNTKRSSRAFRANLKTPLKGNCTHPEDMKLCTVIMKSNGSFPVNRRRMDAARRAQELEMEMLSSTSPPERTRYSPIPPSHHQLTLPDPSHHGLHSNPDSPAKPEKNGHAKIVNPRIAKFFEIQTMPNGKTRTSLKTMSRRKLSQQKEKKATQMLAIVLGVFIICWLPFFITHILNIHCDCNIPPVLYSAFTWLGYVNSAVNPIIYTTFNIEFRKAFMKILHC
T2 sequence (P28223 whole entry): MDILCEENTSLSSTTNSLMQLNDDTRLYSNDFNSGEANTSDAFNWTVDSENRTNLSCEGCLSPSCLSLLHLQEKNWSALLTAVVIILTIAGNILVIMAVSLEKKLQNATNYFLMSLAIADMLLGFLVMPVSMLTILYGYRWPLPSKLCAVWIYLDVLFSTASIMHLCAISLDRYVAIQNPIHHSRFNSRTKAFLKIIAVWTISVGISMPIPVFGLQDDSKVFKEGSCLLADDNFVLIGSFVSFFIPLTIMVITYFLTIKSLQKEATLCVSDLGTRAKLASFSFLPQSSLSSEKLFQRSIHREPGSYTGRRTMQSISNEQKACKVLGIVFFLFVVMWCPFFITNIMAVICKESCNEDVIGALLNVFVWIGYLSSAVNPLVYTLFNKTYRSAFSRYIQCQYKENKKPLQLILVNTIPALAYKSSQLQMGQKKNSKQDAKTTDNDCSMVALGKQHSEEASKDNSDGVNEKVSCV

- IC50 [1]: 3 nM
- IC50 [2]: 136 nM
Compound: O=C1C(CC(F)(F)F)SCN1CCCCN1CCN(c2nsc3ccccc23)CC1 (centres undefined)
- ED50 [3]: 3.3 mg/kg

- IC50 [1]: 2 nM
- IC50 [4]: 18 nM
Compound: O=C1N(CCCCN2CCN(c3nsc4ccccc34)CC2)CSC12CCCCC2
- Activity [5]: 100%

- IC50 [1]: 11 nM
- IC50 [4]: 5 nM
- IC50 [2]: 86 nM
Compound: CC1SCN(CCCCN2CCN(c3nsc4ccccc34)CC2)C1=O (centres undefined)
- Activity [6]: 0%
- Activity [7]: 17%

- IC50 [1]: 11700 nM
- IC50 [4]: 98.1 nM
- IC50 [2]: 356 nM
Compound: CC1SC2(CCCC2)C(=O)N1CCCCN1CCN(c2cn(-c3ccccc3)c3ccccc23)CC1 (centres undefined)
- ED50 [3]: 41.7 mg/kg

- IC50 [1]: 102 nM
- IC50 [4]: 196 nM
- IC50 [2]: 218 nM
Compound: O=C1N(CCCCN2CCN(c3csc4ccccc34)CC2)CSC12CCCCC2
- Activity [8]: 50%
- Activity [7]: 33%

- IC50 [1]: 2 nM
- IC50 [4]: 3 nM
Compound: O=C1N(CCCCN2CCN(c3nsc4ccccc34)CC2)CSC12CCCC2
- Activity [5]: 90%

- IC50 [1]: 969 nM
- IC50 [4]: 1060 nM
- IC50 [2]: 671 nM
Compound: O=C1N(CCCCN2CCN(c3nsc4cc(Cl)ccc34)CC2)CSC12CCCCC2
- Activity [6]: 0%
- Activity [7]: 80%

- IC50 [4]: 10 nM
- IC50 [2]: 14 nM
Compound: CC1(C)SCN(CCCCN2CCN(c3csc4cc(F)ccc34)CC2)C1=O
- Activity [5]: 0%

- IC50 [1]: 1730 nM
- IC50 [4]: 294 nM
- IC50 [2]: 191 nM
Compound: CC1(C)SCN(CCCCN2CCN(c3cn(-c4ccccc4)c4ccccc34)CC2)C1=O
- ED50 [3]: 19.6 mg/kg

- IC50 [1]: 91 nM
- IC50 [4]: 105 nM
- IC50 [2]: 453 nM
Compound: CC(C)(O)C1SCN(CCCCN2CCN(c3csc4cc(F)ccc34)CC2)C1=O (centres undefined)
- Activity [9]: 10%
- Activity [10]: 40%

- IC50 [1]: 189 nM
- IC50 [4]: 131 nM
- IC50 [11]: 8 nM
- Ki [12]: 4 nM
- IC50 [2]: 954 nM
- Ki [13]: 117 nM
- IC50 [32]: 713 nM
Compound: CC1SC2(CCCC2)C(=O)N1CCCCN1CCN(c2csc3cc(F)ccc23)CC1 (centres undefined)
- Activity [14]: 20%
- Activity [15]: 50%
- Change [16]: 14%
- Change [17]: 5%
- Change [18]: 1%
- Change [19]: 18%
- Change [20]: 13%
- Change [21]: -36%
- Change [22]: -12%
- Change [23]: -27%
- Change [24]: -39%
- Change [25]: -8%
- Social interaction [26]: 108
- Social interaction [27]: 106.5
- Social interaction [28]: 97.3
- Total activity [29]: 106.3
- Total activity [30]: 82.1
- Total activity [31]: 146

- IC50 [1]: 8 nM
- IC50 [4]: 1 nM
Compound: CC1(C)SCN(CCCCN2CCN(c3nsc4ccccc34)CC2)C1=O
- ED50 [3]: 8.9 mg/kg

Compound: CN1CCN(C2=Nc3cc(Cl)ccc3Nc3ccccc32)CC1 [CLOZAPINE]
- Change [33]: 40%
- Change [17]: 14%
- Change [34]: -15%
- Change [21]: -18%
- Change [24]: -79%
- Change [25]: 37%
- Activity [7]: 33%
- Social interaction [35]: 151.3
- Social interaction [28]: 123.3
- Total activity [36]: 146.3
- Total activity [30]: 140.3
